Legend:
[1] = tested on: PC12 cells; assay: MTT assay, β-amyloid 25-35 toxicity in PC12 cells; format: cell-based, rat; settings: 5 μM β-amyloid 25-35, 6 hours; 10 μM-1 nM
Text: The 3-(4,5-dimethylthiazol-2-yl)-2,5-diphenyl-tetrazolium bromide (MTT) assay measures changes that occur within the cells, involving mitochondria activation, indicative of a process that eventually leads to cell death (Fagarasan et al., Mol. Psychiat. 1996, 1:398-403). This assay is a specific, early indicator of the mechanism of β-amyloid-mediated cell death (Shearman et al., PNAS USA 1994, 91:1470-74). This assay was used to evaluate compounds of formulae I and II. Rat pheochromocytoma (PC12) cells were plated in 96 well plate at a density of 10,000 cells/well, and maintained in Dulbecco's modified Eagle medium (Gibco, Cat. 21969) supplemented with 5% fetal bovine serum (Biological Industries, Cat. 04-121-1A), 10% heat-inactivated horse serum (Gibco Cat. 26050), L-Glutamine 200 mM (Biological Industries, Cat. 03-020-1C), Penicillin 10000 U/ml (Biological Industries, Cat 03-031-1C), and Amphotericin B 50 mg/ml (Biological Industries, Cat. 01-029-1C). The next day the medium was refreshed with serum free media and cells were treated with 5 μM β-amyloid 25-35 (H-1192.0001, Bachem) in the presence or absence of the test compound. Compounds were tested for 6 hours, respectively, at final concentrations ranging between 0.1 nM to 100 μM. 3-Indolepropionic acid (3-IPA, Cat. 220027, Sigma Aldrich) served as a reference antioxidant.

[2] = target: T1, M1 mAChR (Homo sapiens, UniProt P11229); assay: αAPPs secretion in CHO cells double transfected with human APP695 and human M1 mAChR; format: cell-based
T1 sequence (P11229 1-460): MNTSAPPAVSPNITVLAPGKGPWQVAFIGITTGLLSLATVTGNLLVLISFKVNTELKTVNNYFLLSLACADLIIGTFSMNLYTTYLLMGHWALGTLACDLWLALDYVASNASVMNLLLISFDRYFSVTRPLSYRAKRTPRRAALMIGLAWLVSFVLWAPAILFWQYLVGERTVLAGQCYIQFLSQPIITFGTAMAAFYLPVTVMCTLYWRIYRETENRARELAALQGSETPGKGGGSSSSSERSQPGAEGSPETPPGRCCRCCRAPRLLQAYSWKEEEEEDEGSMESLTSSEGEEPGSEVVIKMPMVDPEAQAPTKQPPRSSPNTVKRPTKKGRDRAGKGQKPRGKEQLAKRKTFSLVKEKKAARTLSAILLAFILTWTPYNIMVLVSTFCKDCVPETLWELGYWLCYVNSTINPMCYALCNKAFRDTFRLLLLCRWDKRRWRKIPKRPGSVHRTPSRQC
Experimental: (§1) α-APPs Secretion studies following incubation with the tested compounds were performed as described in Haring, et al. J. Neurochem., 1998, 71:2094-103. […] A day later, cells were washed twice with serum free media, and treated with the test compound at various concentrations ranging from 0.1 nM to 100 μM. […] After 1 hour the conditioned medium was collected to cold Eppendorf tubes, which included a protease inhibitor cocktail (0.1 mM phenylmethylsulphonyl fluoride (PMSF); 5 μg/ml leupeptin; 5 μg/ml pepstatin and 5 units/ml aprotinin) for determining αAPPs release. The protein content of each sample was concentrated using Centricon tubes (Amicon, Beverly, Mass.). […] CHO cells double transfected with human APP695 and M1 mAChR APPs bands were probed using anti-amyloid beta protein (1:1000, monoclonal 6E10 antibody, MAB1560, Chemicon) and peroxidase-linked rabbit anti mouse IgG (1:5,000; Jackson Immuno Research, PA). PC12 cells stably transfected with M1 mAChR APPs bands were probed using the anti-Alzheimer precursor protein A4 (1:4,000; monoclonal 22C11 antibody, Boehringer Mannheim) and the peroxidase-linked rabbit anti mouse IgG (1:20,000; Jackson Immuno Research, PA). Following extensive washout, the membranes were treated with Western Lightning Chemiluminescence Reagent Plus (PerkinElmer Life Sciences, MA) followed by exposure to SuperRX film (Fuji Medical X-ray film, Tokyo, Japan). Quantitative determination of the total APPs bands was performed by Scion Image program (NIH, Bethesda, USA). Samples of control and CCh were assayed in parallel and thus enabled compilation of data from separate experiments.

[3] = target: T2, rat M1 mAChR (Rattus norvegicus, UniProt P08482); assay: αAPPs secretion in PC12 cells stably transfected with rat M1 mAChR; format: cell-based; settings: 0.1 nM to 1 μM, not observed in untransfected PC12
T2 construct: expressed in transfected cells; host or cells: rat pheochromocytoma PC12 cells
T2 sequence (P08482 whole entry): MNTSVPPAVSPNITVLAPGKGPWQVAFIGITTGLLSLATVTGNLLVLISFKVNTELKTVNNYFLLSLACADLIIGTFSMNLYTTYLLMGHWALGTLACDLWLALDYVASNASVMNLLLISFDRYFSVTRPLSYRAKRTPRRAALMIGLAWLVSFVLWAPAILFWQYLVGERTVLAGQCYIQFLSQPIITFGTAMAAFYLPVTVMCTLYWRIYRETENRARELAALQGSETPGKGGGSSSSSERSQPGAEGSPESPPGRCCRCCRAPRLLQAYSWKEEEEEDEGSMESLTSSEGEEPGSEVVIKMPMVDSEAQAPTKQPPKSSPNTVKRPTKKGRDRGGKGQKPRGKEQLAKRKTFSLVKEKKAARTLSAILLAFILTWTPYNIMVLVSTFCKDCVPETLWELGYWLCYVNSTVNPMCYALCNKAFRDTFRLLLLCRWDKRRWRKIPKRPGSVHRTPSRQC
Experimental: as §1, with “Following extensive washout, the membranes were treated with Western Lightning Chemiluminescence Reagent Plus (PerkinElmer Life Sciences, MA) followed by exposure to SuperRX film (Fuji Medical X-ray film, Tokyo, Japan).” left out, “Samples of control and CCh were assayed in parallel and thus enabled compilation of data from separate experiments.” left out

[4] = target: T1, M1 mAChR
[5] = target: T1, M1 mAChR; assay: Intracellular Ca2+ mobilization (Fluo-4 NW) in cells stably transfected with M1 mAChR; format: cell-based; parameters: expressed in transfected cells; settings: 100 μM; mobilization of intracellular Ca ions
Text: On the day of experiment, cells were fully confluent.
To evaluate selectivity for a subtype of mAChR, in particular the M1 mAChR vs. M3 and MS mAChR, the assays were calibrated using ligands that have a combined activity, e.g. M1 agonistic and M3 antagonistic or M1 agonistic and MS antagonistic profiles, respectively. This can eliminate effects due to different receptor reserves in cell-based assays.

SMILES | protection against toxicity induced by Aβ25-35 (MTT) [1] | release of αAPPs ([2]; CHO cells, 0.1 nM to 1 μM) | maximal αAPPs secretion in comparison to untreated control cells ([2]; doubly-transfected CHO cells, AF710B at 0.01 μM, AF710 at 0.1 μM, AF710A at 1 μM) | release of αAPPs [3] | effect of brucine pre-incubation on elevation of intracellular calcium ions [4] | M1 agonist at 100 μM vs. carbachol (full muscarinic agonist, 100%) [5]
CC1SC2(CCN(C)CC2)CN1C(=O)CCc1c[nH]c2ccccc12 (racemic) [AF710, 1-(2,8-dimethyl-1-thia-3,8-diazaspiro[4.5]dec-3-yl)-3-(1H-indol-3-yl) propan-1-one] | protected cells | enhanced the release of αAPPs | 175% | enhanced the release of αAPPs | no such effect | 40%
O=C(O)CCc1c[nH]c2ccccc12 [3-IPA, 3-Indolepropionic acid, reference compound] | protected cells |  |  |  |  | 
CC1OC2(CCN(C)CC2)CN1C(=O)CCc1c[nH]c2ccccc12 (racemic) [AF711, 1-(2,8-dimethyl-1-oxa-3,8-diazaspiro[4.5]dec-3-yl)-3-(1H-indol-3-yl)-propan-1-one] | protected cells |  |  |  |  | 19%
